# Columns and labels:
# [1] = target: T1, recombinant human IL17a (binding to its receptor IL17R) (Homo sapiens, UniProt Q16552); test: IL-17 competition ELISA I (IL17a coated, IL17R/Fc binding)
# T1 construct: purchased R&D Systems 317-ILB (IL17a); 177-IR (IL17R/Fc)
# T1 sequence (Q16552 20-155 limits assumed): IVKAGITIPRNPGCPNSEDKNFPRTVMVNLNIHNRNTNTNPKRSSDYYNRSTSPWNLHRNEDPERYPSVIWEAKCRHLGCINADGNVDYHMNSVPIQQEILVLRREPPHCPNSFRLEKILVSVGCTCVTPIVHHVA
# Experimental: ELISA I: The ability of the compounds to block binding of IL17a to its receptor, IL17R, was analyzed in a competition ELISA format. High binding 96-well plates (Costar #9018) were coated with 20 nM of recombinant human IL17a (R&D Systems #317-ILB) in PBS (0.64 μg/mL), 100 μL/well, for 30 min at 37′C followed by 5 min at 4′C. Plates were then washed in PBST (PBS/0.05% Tween-20) on a plate washer, (Biotech EL-450) blocked with protein-free blocking buffer (Thermo Scientific #37573) in 250 μL/well for 30 min on shaker at room temperature, and then washed again. Compound dilutions prepared in PBST were added into the wells in duplicates followed by the addition of IL17R/Fc (R&D Systems #177-IR) at a final concentration of 12 nM. Plates were then incubated for 30 min at room temperature on the shaker. Wells with no compound served as a positive “no competitor” control, while wells with no IL17R/Fc and no compound served as a blank negative control. After an additional PBST wash, 50 ng/mL HRP-conjugated goat anti-human Fc IgG (KPL #04-10-20) was added to the plate for 30 min at room temperature, followed by PBST wash and addition of SureBlue™ TMB (KPL #52-00-03). After the sufficient color development, the reaction was fixed by the addition of 100 μL/well 0.5 N HCl and absorbance was measured at 450 nm on Biotek plate reader.
# Data were processed using BioAssay Enterprise v10.1.4 (CambridgeSoft) software. Linear OD λ450 were plotted against log concentration (x) and fitted to a 4-parameter logistic equation. IC50 was calculated using positive ‘no competitor’ control data as an upper limit and blank control as a lower limit in each assay.
# [2] = target: T2, biotinylated human IL-17 (binding to IL17R/Fc) (Homo sapiens, UniProt Q16552); test: IL-17 competition ELISA II (captured IL17R/Fc, biotinylated IL-17)
# T2 construct: purchased R&D Systems 317-ILB (IL-17, biotinylated); 177-IR (IL17R/Fc)
# T2 sequence (Q16552 20-155 limits assumed): T1 sequence (Q16552 20-155 limits assumed)
# Outline: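 Anti-human IgG-coated plates captured IL17R/Fc (10 nM), then compound (5-fold dilutions from 1 μM) and biotinylated human IL-17 (20 nM stock) were added for 30 min at room temperature in PBST. Bound IL-17 detected by streptavidin-HRP/TMB at 450 nm. IC50 from 4-parameter logistic fit between no-competitor and blank controls.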
IC50 [1],IC50 [2],SMILES
100 to 1000 nM,< 100 nM,O=C1CC2(CCCC2)CC(=O)N[C@H](Cc2ccc(NC(=O)[C@H](Cc3ccccc3Cl)NC(=O)Cc3ccccc3)cc2)C(=O)NCCCCCCCCN1 [Compound 259]
< 100 nM,< 100 nM,CN1CCCCCNC(=O)CNC(=O)[C@@H](Cc2ccc(NC(=O)[C@H](Cc3ccccc3Cl)NC(=O)Cc3ccccc3)cc2)NC(=O)CC2(CCCC2)CC1=O [Compound 280]
100 to 1000 nM,< 100 nM,O=C1CC2(CCCC2)CC(=O)N[C@H](Cc2ccc(NC(=O)[C@H](Cc3ccccc3Cl)NC(=O)Cc3ccccc3)cc2)C(=O)NCCOCCOCCN1 [Compound 292]
100 to 1000 nM,< 100 nM,CC(C)C[C@H](NC(=O)Cc1ccccc1)C(=O)Nc1ccc(C[C@H]2NC(=O)CC3(CCCC3)CC(=O)NCCCCCNC(=O)CNC2=O)cc1 [Compound 310]
100 to 1000 nM,< 100 nM,CC[C@H](C)[C@H](NC(=O)Cc1ccccc1)C(=O)Nc1ccc(C[C@H]2NC(=O)CC3(CCCC3)CC(=O)NCCCCCNC(=O)CNC2=O)cc1 [Compound 311]
100 to 1000 nM,< 100 nM,CCCC[C@H](NC(=O)Cc1ccccc1)C(=O)Nc1ccc(C[C@H]2NC(=O)CC3(CCCC3)CC(=O)NCCCCCNC(=O)CNC2=O)cc1 [Compound 312]
100 to 1000 nM,< 100 nM,CC(C)[C@H](NC(=O)Cc1ccccc1)C(=O)Nc1ccc(C[C@H]2NC(=O)CC3(CCCC3)CC(=O)NCCCCCNC(=O)CNC2=O)cc1 [Compound 313]
< 100 nM,< 100 nM,O=C1CNC(=O)[C@@H](Cc2ccc(NC(=O)[C@H](Cc3ccccc3Cl)NC(=O)Cc3c(F)cc(F)cc3F)cc2)NC(=O)CC2(CCCC2)CC(=O)NCCCCCN1 [Compound 325]
100 to 1000 nM,< 100 nM,O=C1CC2(CCCC2)CC(=O)N[C@H](Cc2ccc(NC(=O)[C@@H](NC(=O)Cc3ccccc3)C3CCCCC3)cc2)C(=O)NCCOCCOCCN1 [Compound 333]
100 to 1000 nM,< 100 nM,CN1CCCCCNC(=O)CC2(CCCC2)CC(=O)N[C@H](Cc2ccc(NC(=O)[C@@H](NC(=O)Cc3ccccc3)C3CCCCC3)cc2)C(=O)NCC1=O [Compound 335]
1000 to 10000 nM,100 to 1000 nM,O=C1CC2(CCCC2)CC(=O)N[C@H](Cc2ccc(NC(=O)[C@@H](NC(=O)Cc3ccc(CO)cc3)C3CCCCC3)cc2)C(=O)NCCOCCOCCN1 [Compound 344]
100 to 1000 nM,< 100 nM,O=C1CC2(CCCC2)CC(=O)N[C@H](Cc2ccc(NC(=O)[C@H](Cc3ccccc3Cl)NC(=O)Cc3ccccc3)cc2)C(=O)NCCCCCCN1 [Compound 345]
1000 to 10000 nM,< 100 nM,O=C1CC2(CCCC2)CC(=O)N[C@H](Cc2ccc(NC(=O)[C@@H](NC(=O)Cc3ccccc3)C3CCCCC3)cc2)C(=O)NCCCCCCN1 [Compound 346]
100 to 1000 nM,< 100 nM,O=C1CC2(CCCC2)CC(=O)N[C@H](Cc2ccc(NC(=O)[C@H](Cc3ccccc3Cl)NC(=O)Cc3ccccc3)cc2)C(=O)NCCCCCCCN1 [Compound 347]
1000 to 10000 nM,100 to 1000 nM,O=C1CC2(CCCC2)CC(=O)N[C@H](Cc2ccc(NC(=O)[C@@H](NC(=O)Cc3ccccc3)C3CCCCC3)cc2)C(=O)NCCCCCCCN1 [Compound 348]
1000 to 10000 nM,< 100 nM,O=C1CC2(CCCC2)CC(=O)N[C@H](Cc2ccc(NC(=O)[C@H](Cc3ccccc3Cl)NC(=O)Cc3ccccc3)cc2)C(=O)NCCCCCCCCCN1 [Compound 349]
100 to 1000 nM,< 100 nM,O=C1CC2(CCCC2)CC(=O)N[C@H](Cc2ccc(NC(=O)[C@H](Cc3ccccc3Cl)NC(=O)Cc3ccc(CO)cc3)cc2)C(=O)NCCCCCCN1 [Compound 354]
1000 to 10000 nM,< 100 nM,O=C1CC2(CCCC2)CC(=O)N[C@H](Cc2ccc(NC(=O)[C@@H](NC(=O)Cc3ccc(CO)cc3)C3CCCCC3)cc2)C(=O)NCCCCCCN1 [Compound 355]

IC50 [1],IC50 [2],SMILES
100 to 1000 nM,< 100 nM,O=C1CC2(CCCC2)CC(=O)N[C@H](Cc2ccc(NC(=O)[C@H](Cc3ccccc3Cl)NC(=O)Cc3ccc(CO)cc3)cc2)C(=O)NCCCCCCCN1 [Compound 356]
100 to 1000 nM,< 100 nM,O=C1CC2(CCCC2)CC(=O)N[C@H](Cc2ccc(NC(=O)[C@@H](NC(=O)Cc3ccc(CO)cc3)C3CCCCC3)cc2)C(=O)NCCCCCCCN1 [Compound 357]
100 to 1000 nM,< 100 nM,O=C1CC2(CCCC2)CC(=O)N[C@H](Cc2ccc(NC(=O)[C@H](Cc3ccccc3Cl)NC(=O)Cc3ccc(CO)cc3)cc2)C(=O)NCCCCCCCCCN1 [Compound 358]
1000 to 10000 nM,< 100 nM,O=C1CC2(CCCC2)CC(=O)N[C@H](Cc2ccc(NC(=O)[C@@H](NC(=O)Cc3ccc(CO)cc3)C3CCCCC3)cc2)C(=O)NCCCCCCCCCN1 [Compound 359]
100 to 1000 nM,< 100 nM,C[C@H]1NC(=O)[C@@H](Cc2ccc(NC(=O)[C@@H](NC(=O)Cc3ccc(CO)cc3)C3CCCCC3)cc2)NC(=O)CC2(CCCC2)CC(=O)NCCCCCNC1=O [Compound 360]
1000 to 10000 nM,100 to 1000 nM,O=C1CNC(=O)[C@@H](Cc2ccc(NC(=O)[C@@H](NC(=O)c3cccnc3)C3CCCCC3)cc2)NC(=O)CC2(CCCC2)CC(=O)NCCCCCN1 [Compound 362]
100 to 1000 nM,< 100 nM,O=C1CC2(CCCC2)CC(=O)N[C@H](Cc2ccc(NC(=O)[C@H](Cc3ccccc3Cl)NC(=O)Cc3ccc(CO)cc3)cc2)C(=O)NC/C=C/CCCCN1 [Compound 364]
100 to 1000 nM,< 100 nM,C[C@H]1NC(=O)[C@@H](Cc2ccc(NC(=O)[C@@H](NC(=O)c3cccnc3)C3CCCCC3)cc2)NC(=O)CC2(CCCC2)CC(=O)N[C@H](C(=O)O)CCCCNC1=O [Compound 370]
1000 to 10000 nM,100 to 1000 nM,CN1CCCCCCCCN(C)C(=O)[C@@H](Cc2ccc(N(C)C(=O)[C@H](Cc3ccccc3Cl)N(C)C(=O)c3ccccc3)cc2)N(C)C(=O)CC2(CCCC2)CC1=O [Compound 372]
< 100 nM,< 100 nM,O=C1CNC(=O)[C@@H](Cc2ccc(NC(=O)[C@@H](NC(=O)Cc3ccc(F)c(F)c3)C3CCCCC3)cc2)NC(=O)CC2(CCCC2)CC(=O)NCCCCCN1 [Compound 373]
< 100 nM,< 100 nM,O=C1CNC(=O)[C@@H](Cc2ccc(NC(=O)[C@@H](NC(=O)Cc3ccc(F)cc3F)C3CCCCC3)cc2)NC(=O)CC2(CCCC2)CC(=O)NCCCCCN1 [Compound 374]
100 to 1000 nM,< 100 nM,O=C1CNC(=O)[C@@H](Cc2ccc(NC(=O)[C@@H](NC(=O)Cc3ccc(CO)cc3)C3CCCCC3)cc2)NC(=O)CC2(CCCC2)CC(=O)NCCCCCN1 [Compound 375]
100 to 1000 nM,< 100 nM,O=C1CNC(=O)[C@@H](Cc2ccc(NC(=O)[C@@H](NC(=O)c3cccc(O)c3)C3CCCCC3)cc2)NC(=O)CC2(CCCC2)CC(=O)NCCCCCN1 [Compound 376]
< 100 nM,100 to 1000 nM,CC(=O)N[C@H](C(=O)Nc1ccc(C[C@H]2NC(=O)CC3(CCCC3)CC(=O)NCCCCCNC(=O)CNC2=O)cc1)C1CCCCC1 [Compound 377]
1000 to 10000 nM,< 100 nM,O=C1CNC(=O)[C@@H](Cc2ccc(NC(=O)[C@@H](NC(=O)c3ccccc3)C3CCCCC3)cc2)NC(=O)CC2(CCCC2)CC(=O)NCCCCCN1 [Compound 379]
100 to 1000 nM,< 100 nM,O=C1CNC(=O)[C@@H](Cc2ccc(NC(=O)[C@@H](NC(=O)Cc3ccccn3)C3CCCCC3)cc2)NC(=O)CC2(CCCC2)CC(=O)NCCCCCN1 [Compound 381]
100 to 1000 nM,< 100 nM,O=C1CNC(=O)[C@@H](Cc2ccc(NC(=O)[C@@H](NC(=O)c3cccc(F)c3)C3CCCCC3)cc2)NC(=O)CC2(CCCC2)CC(=O)NCCCCCN1 [Compound 382]
100 to 1000 nM,< 100 nM,O=C1CNC(=O)[C@@H](Cc2ccc(NC(=O)[C@@H](NC(=O)c3cccnc3)C3CCCCC3)cc2)NC(=O)CC2(CCCC2)CC(=O)N[C@H](C(=O)O)CCCCN1 [Compound 384]

# — patent publication US9284283B2, “Macrocyclic compounds for modulating IL-17” (ENSEMBLE THERAPEUTICS CORPORATION, priority 2012, dated 2016)
